Reference: ChEMBL document CHEMBL4482319, “Targeting cyb5r3” (2016)
Values belong to the molecule of their own block, whether it stands above or below them. Activity calls are given as the source filed them. The calls are words filed in the database; no cut-off is given here.

Key:
Homo sapiens = organism: Homo sapiens; experiment: Reduction in systolic blood pressure in patient with acute decompensated heart failure during phase II clinical trial; type: functional
Mus musculus [1] = experiment: Induction of hypertension in C57B1/6 mouse assessed as increase in diastolic pressure at 10 mg/kg/day dosed via osmotic mini pumps for 14 days; type: functional, organism-based
Mus musculus [2] = experiment: Induction of hypertension in C57B1/6 mouse assessed as increase in systolic pressure at 10 mg/kg/day dosed via osmotic mini pumps for 14 days; type: functional, organism-based
[3] = molecular target: T1, NADH-cytochrome b5 reductase 3 (Rattus norvegicus) (UniProt P20070); experiment: Inhibition of Cyb5R3 in rat thoracodorsal arteries assessed as inhibition of DETA NONOate-induced response incubated for 24 hrs in presence of sGC activator Bay 58-2667 by pressure myography
T1 sequence (whole entry): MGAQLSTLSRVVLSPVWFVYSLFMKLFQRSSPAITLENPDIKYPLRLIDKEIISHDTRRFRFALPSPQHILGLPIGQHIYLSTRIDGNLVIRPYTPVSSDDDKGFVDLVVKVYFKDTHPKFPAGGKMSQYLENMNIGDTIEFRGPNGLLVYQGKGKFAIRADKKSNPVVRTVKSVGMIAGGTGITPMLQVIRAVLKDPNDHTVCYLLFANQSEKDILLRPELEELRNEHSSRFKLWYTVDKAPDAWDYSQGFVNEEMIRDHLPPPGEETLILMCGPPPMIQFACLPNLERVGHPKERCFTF

Mus musculus [4] = experiment: Induction of hypertension in C57B1/6 mouse assessed as increase in mean arterial pressure at 10 mg/kg/day dosed via osmotic mini pumps for 14 days; type: functional, organism-based
[5] = molecular target: T1, NADH-cytochrome b5 reductase 3 (Rattus norvegicus); experiment: Inhibition of Cyb5R3 in rat thoracodorsal arteries assessed as inhibition of DETA NONOate-induced response incubated for 24 hrs by pressure myography
[6] = molecular target: T1, NADH-cytochrome b5 reductase 3 (Rattus norvegicus); experiment: Inhibition of Cyb5R3 in rat aortic VSMs assessed as reduction in decrease in sGC protein by Western blot analysis; details: concentration not given here
[7] = molecular target: T1, NADH-cytochrome b5 reductase 3 (Rattus norvegicus); experiment: Inhibition of Cyb5R3 in DETA NONOate-stimulated rat aortic VSMs assessed as reduction in NO-induced cGMP production in presence of sGC activator Bay 58-2667
[8] = molecular target: T1, NADH-cytochrome b5 reductase 3 (Rattus norvegicus); experiment: Inhibition of Cyb5R3 in rat aortic VSMs assessed as reduction in decrease in basal cGMP levels
[9] = molecular target: T2, NADH-cytochrome b5 reductase (Homo sapiens) (UniProt P00387); experiment: Inhibition of Cyb5R3 (unknown origin) expressed in HEK293 cells at 21.86 uM incubated for 24 hrs in presence of potassium ferricyanide and NADH by spectrophotometric assay; type: cell-based
T2 sequence (whole entry): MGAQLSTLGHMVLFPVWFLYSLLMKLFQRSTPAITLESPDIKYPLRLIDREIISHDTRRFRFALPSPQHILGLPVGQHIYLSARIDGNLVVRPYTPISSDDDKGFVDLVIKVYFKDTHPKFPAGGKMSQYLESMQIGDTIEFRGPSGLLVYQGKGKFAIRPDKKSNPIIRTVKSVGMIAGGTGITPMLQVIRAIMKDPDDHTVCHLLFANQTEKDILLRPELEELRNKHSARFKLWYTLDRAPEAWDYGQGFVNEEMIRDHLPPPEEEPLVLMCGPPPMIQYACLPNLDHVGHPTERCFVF

Compound: O=C(O)CCCCN(CCc1ccccc1OCc1ccc(CCc2ccccc2)cc1)Cc1ccc(C(=O)O)cc1
Activity (Homo sapiens): 16.6 mmHg

inhibition [3]: inactive | inhibition [5]: Active | inhibition [6]: < 75% | inhibition [7]: inactive | inhibition [8]: Active
Compound: O=c1cc(CS[C@@H]2Nc3ccccc3O2)[nH]c(=S)[nH]1
Activity (Mus musculus [1]): Active | Activity (Mus musculus [2]): Active | Activity (Mus musculus [4]): Active

inhibition [9]: > 80%
Compound: Oc1cc(CSc2ccccc2)nc(S)n1
